Assay results published in US20220257552A1, “METHODS OF PRESCREENING AND TREATING BREAST CANCERS WITH SELECTIVE ANDROGEN RECEPTOR MODULATORS” (priority 2021, published 2022).

Assays:
[1] = test system: MDA-MB-231-AR triple negative breast cancer cells; experiment: MDA-MB-231-AR xenograft in nude mice; assay type: in vivo; details: for body weight / tumor weights: all doses
Protocol: MDA-MB-231-AR triple negative breast cancer cells (2 million cells/mouse; MDA-MB-231 cells stably transfected with AR using lentivirus) were mixed with matrigel (1:1) and injected subcutaneously into the flanks of intact female nude mice (n=5/group). When the tumors reached 150-200 mm^3, the animals were separated into two groups, one receiving vehicle and the other receiving 30 mg/kg Formula VIII orally. Tumor volume was measured thrice weekly and % tumor growth inhibition (TGI) was calculated. At the end of 35 days of treatment, the animals were sacrificed, tumors excised, weighed, and collected for various analyses. Blood was collected and serum separated for drug concentration measurement.

MDA-MB-231-AR cells = experiment: Morphology of MDA-MB-231-AR cells; assay type: cell-based; details: 3 days
Protocol: MDA-MB-231 cells were stably transfected with AR using lentivirus. […] Live cells were visualized using a light-microscope and photographed. The cells were imaged at the same magnification and under the same microscopic conditions.
MDA-MB-231 cells were stably transfected with AR using lentivirus and were treated with vehicle or AR agonists at the indicated concentrations. At the end of 3 days of incubation, the cells were imaged under a microscope (40×).

AR = molecular target: T1, AR (Homo sapiens, UniProt P10275); experiment: AR transactivation (GRE-LUC) in HEK-293 or MDA-MB-231 cells; assay type: cell-based; design: expressed in transfected cells; details: HEK-293 and MDA-MB-231 cells
T1 sequence (P10275 1-920): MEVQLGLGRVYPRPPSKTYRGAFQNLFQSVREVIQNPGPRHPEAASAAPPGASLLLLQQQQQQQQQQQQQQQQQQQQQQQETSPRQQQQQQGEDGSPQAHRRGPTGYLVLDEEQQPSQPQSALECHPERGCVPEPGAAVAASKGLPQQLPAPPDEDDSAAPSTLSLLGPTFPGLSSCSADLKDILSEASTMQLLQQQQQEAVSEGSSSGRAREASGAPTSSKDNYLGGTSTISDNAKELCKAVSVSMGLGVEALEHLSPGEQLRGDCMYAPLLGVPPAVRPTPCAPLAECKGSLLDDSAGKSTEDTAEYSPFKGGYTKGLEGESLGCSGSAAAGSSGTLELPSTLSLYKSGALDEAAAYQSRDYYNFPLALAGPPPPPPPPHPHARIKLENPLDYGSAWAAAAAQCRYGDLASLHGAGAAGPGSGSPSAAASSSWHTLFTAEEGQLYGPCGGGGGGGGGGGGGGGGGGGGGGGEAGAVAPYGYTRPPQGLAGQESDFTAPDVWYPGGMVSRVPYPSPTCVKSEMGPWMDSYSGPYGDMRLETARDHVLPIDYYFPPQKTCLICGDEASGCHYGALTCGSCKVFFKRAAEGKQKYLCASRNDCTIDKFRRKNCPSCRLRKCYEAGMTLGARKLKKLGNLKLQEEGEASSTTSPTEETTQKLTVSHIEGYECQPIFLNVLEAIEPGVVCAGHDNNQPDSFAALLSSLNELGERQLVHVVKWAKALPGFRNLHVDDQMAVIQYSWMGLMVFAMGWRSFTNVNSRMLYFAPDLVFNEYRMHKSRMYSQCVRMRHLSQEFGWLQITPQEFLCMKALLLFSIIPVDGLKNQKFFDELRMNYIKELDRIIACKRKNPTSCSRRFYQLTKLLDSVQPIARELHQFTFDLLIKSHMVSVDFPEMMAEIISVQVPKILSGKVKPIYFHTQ
Protocol: Though AR transactivation assay was performed in HEK-293 cells, the ability of ligands to function as agonists or antagonists depends on cellular microenvironment. […] The cells were treated 24 h after transfection and luciferase assay performed 48 h after transfection.

[2] = test system: MDA-MB-231 breast cancer cells stably transfected with AR; experiment: Proliferation of MDA-MB-231 cells stably transfected with AR (Coulter counter); assay type: cell-based; details: 6 days, cell count
Protocol: MDA-MB-231 cells stably transfected with AR using lentivirus were treated with the indicated ligands for 6 days and the number of cells counted using Coulter counter.

PR = molecular target: T2, PR (Rattus norvegicus, UniProt Q63449); experiment: PR transactivation in HEK-293 cells; assay type: cell-based
T2 construct: expressed in transfected cells
T2 sequence (Q63449 1-923): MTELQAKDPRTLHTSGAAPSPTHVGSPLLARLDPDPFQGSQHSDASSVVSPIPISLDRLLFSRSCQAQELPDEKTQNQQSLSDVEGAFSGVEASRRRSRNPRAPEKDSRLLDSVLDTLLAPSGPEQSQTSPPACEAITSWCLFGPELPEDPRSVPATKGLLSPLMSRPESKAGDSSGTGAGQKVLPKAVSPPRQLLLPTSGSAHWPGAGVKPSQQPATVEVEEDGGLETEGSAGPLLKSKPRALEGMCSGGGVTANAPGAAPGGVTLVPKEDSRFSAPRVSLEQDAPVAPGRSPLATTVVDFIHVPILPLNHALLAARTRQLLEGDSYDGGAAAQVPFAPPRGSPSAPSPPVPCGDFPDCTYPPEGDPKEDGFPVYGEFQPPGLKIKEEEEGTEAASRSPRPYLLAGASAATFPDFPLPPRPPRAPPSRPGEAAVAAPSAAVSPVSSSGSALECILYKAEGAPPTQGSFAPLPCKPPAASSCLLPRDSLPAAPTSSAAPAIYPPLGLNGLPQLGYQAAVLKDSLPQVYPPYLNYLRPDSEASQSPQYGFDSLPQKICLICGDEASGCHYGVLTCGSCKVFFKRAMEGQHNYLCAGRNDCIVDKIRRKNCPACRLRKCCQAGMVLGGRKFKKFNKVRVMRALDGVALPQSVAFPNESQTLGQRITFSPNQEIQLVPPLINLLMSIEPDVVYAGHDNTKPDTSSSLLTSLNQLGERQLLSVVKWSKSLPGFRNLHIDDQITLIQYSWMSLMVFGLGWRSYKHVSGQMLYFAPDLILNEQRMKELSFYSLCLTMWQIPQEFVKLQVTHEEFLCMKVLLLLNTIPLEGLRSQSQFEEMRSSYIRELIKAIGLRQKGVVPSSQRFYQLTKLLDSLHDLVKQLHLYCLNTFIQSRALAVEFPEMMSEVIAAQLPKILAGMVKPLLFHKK
Protocol: Rat GR, MR, PR, ER-α and ER-β were individually cloned into a pCR3.1 vector backbone. Sequencing was performed to verify the absence of any mutations. HEK-293 cells were plated at 90,000 cells per well of a 24 well plate in Dulbecco's Minimal Essential Media supplemented with 5% charcoal-stripped FBS. […] Luciferase assays were performed 48 h after transfection. Transcriptional activation values are represented as firefly luciferase normalized to renilla luciferase.

With `C[C@](O)(COc1ccc(C#N)cc1)C(=O)Nc1ccc(C#N)c(C(F)(F)F)c1` [Formula IX, (S)—N-(4-Cyano-3-(trifluoromethyl)phenyl)-3-(4-cyanophenoxy)-2-hydroxy-2-methylpropanamide] the body weight [1] was “increase of body weight”, the tumor weights [1] was “reduced” and the cell morphology (MDA-MB-231-AR cells) was “altered the morphology into a more anchored phenotype”. The AR transactivation (AR) was “agonists of AR”, the proliferation [2] was “inhibited the proliferation” and the IC50 (PR) was 163 nM.
With `C[C@](O)(COc1ccc(C#N)cc1)C(=O)Nc1ccc(C#N)c(Cl)c1` [Formula VIII, (S)—N-(3-chloro-4-cyanophenyl)-3-(4-cyanophenoxy)-2-hydroxy-2-methylpropanamide] the uterus weight ([1]; 30 mg/kg orally) was “increased”, the “toxicity / body weight” value ([1]; 30 mg/kg orally, 35 days) was “without any associated toxicity or changes in body weight” and the body weight [1] was “increase of body weight”. For the same molecule, the tumor weights [1] was “reduced”, the cell morphology (MDA-MB-231-AR cells) was “altered the morphology into a more anchored phenotype” and the AR transactivation (AR) was “agonists of AR”. For the same molecule, the proliferation [2] was “inhibited the proliferation”, the IC50 (PR) was 17.1 nM and the “PR antagonist potency relative to Formula IX (more potent)” value (PR) was 10 times. The “PR antagonist potency relative to R-enantiomer of Formula IX (more potent)” value (PR) was 100 times, the “PR antagonist potency relative to RU486 (weaker)” value (PR) was “about 1,000 fold” and the “transactivation of PR, increase” value (PR; 1 μM) was 3 fold. For the same molecule, the “transactivation of PR, increase” value (PR; 10 μM) was 8 fold and the “weaker than the endogenous agonist for PR” value (PR; vs progesterone) was “greater than 10,000 fold”.
